target: T1, PDE4B (human recombinant) (Homo sapiens, UniProt Q07343); assay: Inhibition of PDE4B activity: SPA and/or Fluorescence Polarisation (FP) assay; format: biochemical; details: one reading (n=1) or average of 2 or more readings, read-out: PDE4B pIC50 (±about 0.5) (converted)
T1 construct: made in house
Procedure: The ability of compounds to inhibit catalytic activity at PDE4B or 4D (human recombinant), PDE3 (from bovine aorta), PDE5 (human recombinant) or PDE6 (from bovine retina) can optionally be determined by Scintillation Proximity Assay (SPA) in a 96-well format.
The enzyme concentration is adjusted so that no more than 20% hydrolysis of the substrate defined below occurs in control wells without compound, during the incubation. For the PDE3, PDE4B and PDE4D assays, [5′,8-3H]Adenosine 3′,5′-cyclic phosphate (Amersham Pharmacia Biotech, code TRK.559; or Amersham Biosciences UK Ltd, Pollards Wood, Chalfont St Giles, Buckinghamshire HP8 4SP, UK) is added to give 0.05 uCi per well and about 10 nM final concentration. […] Plates containing assay mixture, suitably approx. 100 ul volume of assay mixture, are mixed on an orbital shaker for 5 minutes and incubated at ambient temperature for 1 hour. Phosphodiesterase SPA beads (Amersham Pharmacia Biotech, code RPNQ 0150) are added (about 1 mg per well) to terminate the assay. Plates are sealed and shaken and allowed to stand at ambient temperature for 35 minutes to 1 hour (suitably 35 minutes) to allow the beads to settle. […] Curves are analysed using ActivityBase and XLfit (ID Business Solutions Limited, 2 Ocean Court, Surrey Research Park, Guildford, Surrey GU2 7QB, United Kingdom). Results are expressed as pIC50 values.
The ability of compounds to inhibit catalytic activity at PDE4B (human recombinant) or PDE4D (human recombinant) can optionally be determined by IMAP Fluorescence Polarisation (FP) assay (IMAP Explorer kit, available from Molecular Devices Corporation, Sunnydale, Calif., USA; Molecular Devices code: R8062) in 384-well format.
The IMAP FP assay is able to measure PDE activity in an homogenous, non-radioactive assay format. The FP assay uses the ability of immobilised trivalent metal cations, coated onto nanoparticles (tiny beads), to bind the phosphate group of Fl-AMP that is produced on the hydrolysis of fluorescein-labelled (Fl) cyclic adenosine mono-phosphate (Fl-cAMP) to the non-cyclic Fl-AMP form. […] Binding of Fl-AMP product to the beads (coated with the immobilised trivalent cations) slows the rotation of the bound Fl-AMP and leads to an increase in the fluorescence polarisation ratio of parallel to perpendicular light. Inhibition of the PDE reduces/inhibits this signal increase.
The enzyme level is set by experimentation so that reaction is linear throughout the incubation. Fluorescein adenosine 3′,5′-cyclic phosphate (from Molecular Devices Corporation, Molecular Devices code: R7091) is added to give about 40 nM final concentration (final assay volume usually ca. 20-40 ul, suitably ca. 20 ul). Plates are mixed on an orbital shaker for 10 seconds and incubated at ambient temperature for 40 minutes. IMAP binding reagent (as described above, from Molecular Devices Corporation, Molecular Devices code: R7207) is added (60 ul of a 1 in 400 dilution in binding buffer of the kit stock solution) to terminate the assay. Plates are allowed to stand at ambient temperature for 1 hour. The Fluorescence Polarisation (FP) ratio of parallel to perpendicular light is measured using an Analyst™ plate reader (from Molecular Devices Corporation). […] Curves are analysed using ActivityBase and XLfit (ID Business Solutions Limited, 2 Ocean Court, Surrey Research Park, Guildford, Surrey GU2 7QB, United Kingdom). Results are expressed as plC50 values.

T1 sequence (Q07343 1-564 isoform Q07343-2): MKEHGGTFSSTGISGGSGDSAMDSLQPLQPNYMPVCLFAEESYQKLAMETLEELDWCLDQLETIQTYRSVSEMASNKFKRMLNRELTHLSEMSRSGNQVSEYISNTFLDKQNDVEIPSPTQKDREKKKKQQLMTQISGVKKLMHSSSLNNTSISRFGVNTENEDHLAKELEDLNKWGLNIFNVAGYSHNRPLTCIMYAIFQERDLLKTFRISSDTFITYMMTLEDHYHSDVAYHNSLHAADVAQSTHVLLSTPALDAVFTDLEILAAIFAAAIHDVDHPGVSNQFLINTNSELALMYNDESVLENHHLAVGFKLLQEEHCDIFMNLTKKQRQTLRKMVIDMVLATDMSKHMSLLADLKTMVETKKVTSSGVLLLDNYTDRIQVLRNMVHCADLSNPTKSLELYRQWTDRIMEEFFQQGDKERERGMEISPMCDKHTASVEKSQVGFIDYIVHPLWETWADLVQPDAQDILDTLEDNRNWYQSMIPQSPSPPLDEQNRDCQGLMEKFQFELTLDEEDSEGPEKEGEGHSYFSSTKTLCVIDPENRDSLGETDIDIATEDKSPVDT

Compound	IC50
CCn1ncc2c(NC3CCOCC3)c(CNC(=O)c3cccc(N4CCCC4=O)c3)c(C)nc21 [Example 216, N-{[1-ethyl-6-methyl-4-(tetrahydro-2H-pyran-4-ylamino)-1H-pyrazolo[3,4-b]pyridin-5-yl]methyl}-3-(2-oxo-1-pyrrolidinyl)benzamide]	0.126 to 1 nM
CCc1nc2c(cnn2CC)c(NC2CCN(C(N)=O)CC2)c1CNC(=O)c1cccc(N2CCCC2=O)c1 [Example 247, 4-({1,6-diethyl-5-[({[3-(2-oxo-1-pyrrolidinyl)phenyl]carbonyl}amino)methyl]-1H-pyrazolo[3,4-b]pyridin-4-yl}amino)-1-piperidinecarboxamide]	0.01 to 0.1 nM
CCn1ncc2c(NC3CCOCC3)c(CNC(=O)c3ccc(-n4cccc4)nc3)c(C)nc21 [Example 214, N-{[1-ethyl-6-methyl-4-(tetrahydro-2H-pyran-4-ylamino)-1H-pyrazolo[3,4-b]pyridin-5-yl]methyl}-6-(1H-pyrrol-1-yl)-3-pyridinecarboxamide]	0.126 to 1 nM
CCc1nc2c(cnn2CC)c(NC2CCOCC2)c1CNC(=O)NCCc1ccccc1 [Example 202, N-{[1,6-diethyl-4-(tetrahydro-2H-pyran-4-ylamino)-1H-pyrazolo[3,4-b]pyridin-5-yl]methyl}-N′-(2-phenylethyl)urea]	0.126 to 1 nM
CCc1nc2c(cnn2CC)c(NC2CCOCC2)c1CNC(=O)c1ccc2c(=O)[nH][nH]c2c1 [Example 257, N-{[1,6-diethyl-4-(tetrahydro-2H-pyran-4-ylamino)-1H-pyrazolo[3,4-b]pyridin-5-yl]methyl}-3-oxo-2,3-dihydro-1H-indazole-6-carboxamide]	0.01 to 0.1 nM
CCc1nc2c(cnn2CC)c(NC2CCOCC2)c1CNC(=O)c1ccc(N2CCOCC2)cc1 [Example 180, N-{[1,6-diethyl-4-(tetrahydro-2H-pyran-4-ylamino)-1H-pyrazolo[3,4-b]pyridin-5-yl]methyl}-4-(4-morpholinyl)benzamide]	0.01 to 0.1 nM

Other lines, results leading:

IC50	Compound
0.01 to 0.1 nM	CCn1ncc2c(NC3CCN(C(N)=O)CC3)c(CNC(=O)c3ccc(N4CCCCC4)cc3)c(C)nc21 [Example 269, 4-({1-ethyl-6-methyl-5-[({[4-(1-piperidinyl)phenyl]carbonyl}amino)methyl]-1H-pyrazolo[3,4-b]pyridin-4-yl}amino)-1-piperidinecarboxamide]
0.126 to 1 nM	CCc1nc2c(cnn2CC)c(NC2CCOCC2)c1CNC(=O)c1csc(C)n1 [Example 309, N-{[1,6-diethyl-4-(tetrahydro-2H-pyran-4-ylamino)-1H-pyrazolo[3,4-b]pyridin-5-yl]methyl}-2-methyl-1,3-thiazole-4-carboxamide]
0.01 to 0.1 nM	CCn1ncc2c(NC3CCN(C(N)=O)CC3)c(CNC(=O)c3ccc(C)cc3O)c(C)nc21 [Example 265, 4-{[1-ethyl-5-({[(2-hydroxy-4-methylphenyl)carbonyl]amino}methyl)-6-methyl-1H-pyrazolo[3,4-b]pyridin-4-yl]amino}-1-piperidinecarboxamide]
0.01 to 0.1 nM	CCn1ncc2c(NC3CCN(C(N)=O)CC3)c(CNC(=O)c3cccc(N4CCCC4=O)c3)c(C)nc21 [Example 267, 4-({1-ethyl-6-methyl-5-[({[3-(2-oxo-1-pyrrolidinyl)phenyl]carbonyl}amino)methyl]-1H-pyrazolo[3,4-b]pyridin-4-yl}amino)-1-piperidinecarboxamide]
0.126 to 1 nM	CCn1ncc2c(NC3CCOCC3)c(CNC(=O)c3ccc(F)cc3)c(C)nc21 [Example 313, N-{[1-ethyl-6-methyl-4-(tetrahydro-2H-pyran-4-ylamino)-1H-pyrazolo[3,4-b]pyridin-5-yl]methyl}-4-fluorobenzamide]
0.126 to 1 nM	CCn1ncc2c(NC3CCOCC3)c(CNC(=O)c3cnc(C)s3)c(C)nc21 [Example 322, N-{[1-ethyl-6-methyl-4-(tetrahydro-2H-pyran-4-ylamino)-1H-pyrazolo[3,4-b]pyridin-5-yl]methyl}-2-methyl-1,3-thiazole-5-carboxamide]
